Values quoted from earlier work, collected in PubChem BioAssay AID1259409 (Chemical Carcinogenesis Research Information System (CCRIS), 2018).

Tested on: rodent chemically induced tumor inhibition, incidence and multiplicity
Test: CCRIS tumor inhibitor studies
Conditions: Route [Inhibitor]: ORAL, Promoter: NONE USED; for outcome: Target Tissue: Type of Lesion: GALLBLADDER: CARCINOMA IN SITU

Structure (SMILES): O=[Se](O)O
- tumour outcome (control, treated, inhibition, significance) (Carcinogen: 1,2-DIMETHYLHYDRAZINE, 540-73-8, Dose [Inhibitor]: 0, 10 MG/L IN DRINKING WATER FOR DURATION OF STUDY BEGINNING 7 D PRIOR TO CARCINOGEN TREATMENT (STUDY DURATION: 8 MO), Species: RAT, Strain/Sex: BD6/MALE, Target Tissue: Type of Lesion: INTESTINE: TUMOR, Dose [Carcinogen]: 20 MG/KG BW 1/WK FOR 20 WK): 100%, 100%, 0%, not significant
- tumour outcome (control, treated, inhibition, significance) (Carcinogen: 1,2-DIMETHYLHYDRAZINE, 540-73-8, Dose [Inhibitor]: 4 PPM IN DRINKING WATER DAILY FOR 10-20 WK STARTING AFTER COMPLETION OF CARCINOGEN TREATMENT AND CONTINUING FOR DURATION, Species: RAT, Strain/Sex: SPRAGUE-DAWLEY/MALE, Target Tissue: Type of Lesion: COLON: ADENOCARCINOMA, VILLOUS ADENOMA, Dose [Carcinogen]: 20 MG/KG BW 1/WK FOR 20 WK): 29/32 (91%), 63/69 (91%), 0%, not calculated
- tumour outcome (control, treated, inhibition, significance) (Carcinogen: 1,2-DIMETHYLHYDRAZINE, 540-73-8, Dose [Inhibitor]: 4 PPM IN DRINKING WATER DAILY FOR 20 WK STARTING SIMULTANEOUSLY WITH CARCINOGEN TREATMENT AND CONTINUING THROUGH END OF, Species: RAT, Strain/Sex: SPRAGUE-DAWLEY/MALE, Target Tissue: Type of Lesion: COLON: ADENOCARCINOMA, Dose [Carcinogen]: 20 MG/KG BW 1/WK FOR 20 WK): 13/15 (87%), 6/15 (40%), 54%, p 0.025
- tumour outcome (control, treated, inhibition, significance) (Carcinogen: 1,2-DIMETHYLHYDRAZINE, 540-73-8, Dose [Inhibitor]: 4 PPM IN DRINKING WATER DAILY STARTING 2 WK PRIOR TO START OF CARCINOGEN TREATMENT AND CONTINUING FOR DURATION OF STUDY, Species: RAT, Strain/Sex: SPRAGUE-DAWLEY/MALE, Target Tissue: Type of Lesion: COLON: ADENOCARCINOMA, Dose [Carcinogen]: 20 MG/KG BW IN BACTERIOSTATIC SALINE 1/WK FOR 20 WK): 9/14 (64%), 4/13 (31%), 52%, not calculated
- tumour outcome (control, treated, inhibition, significance) (Carcinogen: 2-(ACETYLAMINO)FLUORENE, 6292-55-3, Dose [Inhibitor]: 4 PPM IN DRINKING WATER DAILY STARTING 1 WK PRIOR TO CARCINOGEN TREATMENT AND CONTINUING FOR DURATION OF STUDY (STUDY DU, Species: RAT, Strain/Sex: SPRAGUE-DAWLEY/MALE, Target Tissue: Type of Lesion: LIVER: CARCINOMA, Dose [Carcinogen]: 0.03% IN DIET DAILY FOR 14 WK): 9/13 (69%), 4/14 (29%), 58%, not calculated
- tumour outcome (control, treated, inhibition, significance) (Carcinogen: 3'-METHYL-4-DIMETHYLAMINOAZOBENZENE, 55-80-1, Dose [Inhibitor]: 6 PPM IN DRINKING WATER DAILY STARTING 1 WK PRIOR TO START OF CARCINOGEN TREATMENT AND CONTINUING FOR DURATION OF STUDY, Species: RAT, Strain/Sex: SPRAGUE-DAWLEY/MALE, Target Tissue: Type of Lesion: LIVER: ADENOCARCINOMA, Dose [Carcinogen]: 0.05% IN DIET DAILY FOR 8 WK): 11/12 (92%), 7/15 (46%), 50%, p<0.01
- outcome (Carcinogen: 3-METHYLCHOLANTHRENE, 56-49-5, Dose [Inhibitor]: 0, 0.5 PPM IN DRINKING WATER FOR 24 WK BEGINNING 4 WK PRIOR TO CARCINOGEN TREATMENT (STUDY DURATION: 24 WK), Species: HAMSTER, Strain/Sex: SYRIAN/FEMALE, Dose [Carcinogen]: 3 MG IN BEESWAX PELLET INSERTED INTO GALLBLADDER AT WK 4 OF STUDY): 0/24 (0%), 3/20 (15%), -100%, not significant
- tumour outcome (control, treated, inhibition, significance) (Carcinogen: 3-METHYLCHOLANTHRENE, 56-49-5, Dose [Inhibitor]: 0, 0.5 PPM IN DRINKING WATER FOR 24 WK BEGINNING 4 WK PRIOR TO CARCINOGEN TREATMENT (STUDY DURATION: 24 WK), Species: HAMSTER, Strain/Sex: SYRIAN/FEMALE, Target Tissue: Type of Lesion: GALLBLADDER: INVASIVE ADENOCARCINOMA, Dose [Carcinogen]: 3 MG IN BEESWAX PELLET INSERTED INTO GALLBLADDER AT WK 4 OF STUDY): 21/24 (88%), 11/20 (55%), 38%, p<0.05
- outcome (Carcinogen: 3-METHYLCHOLANTHRENE, 56-49-5, Dose [Inhibitor]: 0, 2 PPM IN DRINKING WATER FOR 24 WK BEGINNING 4 WK PRIOR TO CARCINOGEN TREATMENT (STUDY DURATION: 24 WK), Species: HAMSTER, Strain/Sex: SYRIAN/FEMALE, Dose [Carcinogen]: 3 MG IN BEESWAX PELLET INSERTED INTO GALLBLADDER AT WK 4 OF STUDY): 0/24 (0%), 7/21 (33%), -100%, p<0.05
- tumour outcome (control, treated, inhibition, significance) (Carcinogen: 3-METHYLCHOLANTHRENE, 56-49-5, Dose [Inhibitor]: 0, 2 PPM IN DRINKING WATER FOR 24 WK BEGINNING 4 WK PRIOR TO CARCINOGEN TREATMENT (STUDY DURATION: 24 WK), Species: HAMSTER, Strain/Sex: SYRIAN/FEMALE, Target Tissue: Type of Lesion: GALLBLADDER: INVASIVE ADENOCARCINOMA, Dose [Carcinogen]: 3 MG IN BEESWAX PELLET INSERTED INTO GALLBLADDER AT WK 4 OF STUDY): 21/24 (88%), 10/21 (48%), 45%, p<0.05
- tumour outcome (control, treated, inhibition, significance) (Carcinogen: 3-METHYLCHOLANTHRENE, 56-49-5, Dose [Inhibitor]: 0, 2 UG/G/BW 2/WK FOR 20 WK (STUDY DURATION: 20 WK), Species: MOUSE, Strain/Sex: ICRC/MALE, Target Tissue: Type of Lesion: SKIN: PAPILLOMA, Dose [Carcinogen]: 50 UG IN 0.2 ML ACETONE 2/WK): 100%, 100%, 0%, not significant
- outcome (Carcinogen: 3-METHYLCHOLANTHRENE, 56-49-5, Dose [Inhibitor]: 0, 4 PPM IN DRINKING WATER FOR 24 WK BEGINNING 4 WK PRIOR TO CARCINOGEN TREATMENT (STUDY DURATION: 24 WK), Species: HAMSTER, Strain/Sex: SYRIAN/FEMALE, Dose [Carcinogen]: 3 MG IN BEESWAX PELLET INSERTED INTO GALLBLADDER AT WK 4 OF STUDY): 0/24 (0%), 5/22 (23%), -100%, p<0.05
- tumour outcome (control, treated, inhibition, significance) (Carcinogen: 3-METHYLCHOLANTHRENE, 56-49-5, Dose [Inhibitor]: 0, 4 PPM IN DRINKING WATER FOR 24 WK BEGINNING 4 WK PRIOR TO CARCINOGEN TREATMENT (STUDY DURATION: 24 WK), Species: HAMSTER, Strain/Sex: SYRIAN/FEMALE, Target Tissue: Type of Lesion: GALLBLADDER: INVASIVE ADENOCARCINOMA, Dose [Carcinogen]: 3 MG IN BEESWAX PELLET INSERTED INTO GALLBLADDER AT WK 4 OF STUDY): 21/24 (88%), 12/22 (55%), 38%, p<0.05
- tumour outcome (control, treated, inhibition, significance) (Carcinogen: 4-(METHYLNITROSAMINO)-1-(3-PYRIDYL)-1-BUTANONE, 64091-91-4, Dose [Inhibitor]: 0, 0.0022 G/KG DIET (0.00008 UMOL/D) BEGINNING 2 WK PRIOR TO CARCINOGEN DOSE AND CONTINUING FOR DURATION OF STUDY (STUDY, Species: MOUSE, Strain/Sex: STRAIN-A/FEMALE, Target Tissue: Type of Lesion: LUNG: ADENOMA, Dose [Carcinogen]: 9.2, 9.1 MG/MOUSE IN DRINKING WATER DURING 7 WK): 28/28 (100%), 24/25 (96%), 4%, not significant
- tumour outcome (control, treated, inhibition, significance) (Carcinogen: 4-(METHYLNITROSAMINO)-1-(3-PYRIDYL)-1-BUTANONE, 64091-91-4, Dose [Inhibitor]: 0, 5 PPM IN DIET BEGINNING 1 WK PRIOR TO CARCINOGEN TREATMENT AND CONTINUING FOR 16 WK POST CARCINOGEN TREATMENT (STUDY, Species: MOUSE, Strain/Sex: STRAIN-A/FEMALE, Target Tissue: Type of Lesion: LUNG: ADENOMA, Dose [Carcinogen]: 10 UMOL IN 0.1 ML SALINE): 100%, 100%, 0%, not significant
